From PMC7857147 (Biochemistry, 2019)

B1: Methanobrevibacter smithii Dph2 (enzyme, UniProt A5UMY5 1-334, looked up)
chain: MSMYNMDLDKVIRKINKKGARTVGLQFPEGLKMQAVKIAKAIESQTPATVIISGDPCFGACDVSDYKMKGSVDLIVHYGHTPLPLKYEVPTLFIEAFSNIDVKKDLEKCLEKLEDYSKIALVTTTQHLHLLNEIKDYLEDNGKEVVLGSSKNTKKGQVLGCNFSSIKNLDAEVYLFIGSGNFHPLGIYLFTKSPVLALDPYNSEIRDISAFADRILRIRFARITKAREAEKWGIIVSSKEGQYRMKLAKEIKKILEDNKMEAYIIMADNINPDILLPYMELDAFVVSACPRIAIDDSQMYKKPLLTPQELEIVLNKRQWENYQLDEILFHERYK

How the values were obtained:
PhDph2 = PhDph2 (Pyrococcus horikoshii, UniProt O58832, R289A); experiment: HPLC of SAM cleavage to MTA; format: biochemical; conditions: 60 uM SAM, 1 mM dithionite, pH 7.4, 65 °C, 10 min, no EF-2, anaerobic
crystal structure = molecular target: the molecule itself; experiment: crystal structure

Sequence of PhDph2 (O58832 whole entry R289A): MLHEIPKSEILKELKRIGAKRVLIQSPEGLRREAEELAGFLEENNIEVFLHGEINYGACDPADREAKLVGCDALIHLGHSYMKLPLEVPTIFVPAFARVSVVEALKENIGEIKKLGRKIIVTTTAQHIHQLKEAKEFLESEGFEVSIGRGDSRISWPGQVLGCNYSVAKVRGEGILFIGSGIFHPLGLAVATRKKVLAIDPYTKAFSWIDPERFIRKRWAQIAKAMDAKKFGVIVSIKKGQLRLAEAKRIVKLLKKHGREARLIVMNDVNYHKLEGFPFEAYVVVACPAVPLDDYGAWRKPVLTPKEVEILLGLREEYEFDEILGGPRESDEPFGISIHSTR

Row | Molecule | HPLC of SAM cleavage to MTA (PhDph2) | stoichiometry N (crystal structure)
1 | C[S+](CC[C@H](N)C(=O)O)C[C@H]1O[C@@H](n2cnc3c(N)ncnc32)[C@H](O)[C@@H]1O (some centres unmarked) [SAM] | the R289A mutant still had SAM cleavage activity | 
2 | B1 |  | 2
